Test results: ChEMBL document CHEMBL1148597, “New tyrosinase inhibitors selected by atomic linear indices-based classification models” (Bioorg Med Chem Lett, 2006)

molecular target: T1, Tyrosinase (Homo sapiens, UniProt P14679); assay: Inhibitory activity against tyrosinase
T1 sequence (P14679 whole entry): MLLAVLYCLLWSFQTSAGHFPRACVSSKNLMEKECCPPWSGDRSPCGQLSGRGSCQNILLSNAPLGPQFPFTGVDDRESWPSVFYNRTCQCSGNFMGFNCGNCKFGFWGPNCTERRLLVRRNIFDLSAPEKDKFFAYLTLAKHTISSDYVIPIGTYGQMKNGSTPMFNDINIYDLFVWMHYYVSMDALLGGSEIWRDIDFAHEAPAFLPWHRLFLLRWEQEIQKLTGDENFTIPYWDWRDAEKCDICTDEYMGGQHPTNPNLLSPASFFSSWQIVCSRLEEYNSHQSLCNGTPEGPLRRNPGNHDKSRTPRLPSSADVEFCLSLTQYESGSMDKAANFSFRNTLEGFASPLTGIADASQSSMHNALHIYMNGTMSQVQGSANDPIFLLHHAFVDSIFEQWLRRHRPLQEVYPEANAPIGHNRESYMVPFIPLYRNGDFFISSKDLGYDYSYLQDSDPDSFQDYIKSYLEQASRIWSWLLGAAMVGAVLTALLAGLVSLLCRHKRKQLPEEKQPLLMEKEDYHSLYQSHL

| IC50 [µM] | SMILES |
| --- | --- |
| 48.9 | CC(C)(O)[C@@H]1CC[C@](C)([C@H]2[C@@H](O)C[C@@]3(C)[C@@H]4C[C@H](O[C@@H]5OC[C@@H](O)[C@H](O)[C@H]5O)[C@H]5C(C)(C)[C@@H](O[C@@H]6OC[C@@H](O)[C@H](O)[C@H]6O[C@@H]6OC[C@H](O)[C@H](O)[C@H]6O)CC[C@@]56C[C@@]46CC[C@]23C)O1 [ASKENDOSIDE D] |
| 102 | C[C@@H]1O[C@@H](O[C@H]2C[C@@H]3[C@]4(CC[C@]5(C)[C@@H]([C@@]6(C)CC[C@@H](C(C)(C)O)O6)[C@@H](O)C[C@@]35C)C[C@@]43CC[C@H](O[C@@H]4OC[C@@H](O)[C@H](O)[C@H]4O)C(C)(C)[C@H]23)[C@H](O)[C@H](O)[C@H]1O [CYCLOCARPOSIDE] |
| 54.6 | C[C@@H]1C[C@H]2O[C@]3(C[C@@]4(C)[C@@H]5[C@@H](O)C[C@H]6C(C)(C)[C@@H](O[C@@H]7OC[C@@H](O)[C@H](O)[C@H]7O)CC[C@@]67C[C@@]57CC[C@]4(C)[C@@H]13)O[C@@H]2C(C)(C)O[C@@H]1O[C@H](CO)[C@@H](O)[C@H](O)[C@H]1O [CYCLOORBICOSIDE G] |
| 13.9 | CC(=O)O[C@@H]1[C@@H](O[C@@H]2OC[C@H](O)[C@H](O)[C@H]2O)[C@H](O[C@H]2CC[C@]34C[C@]35CC[C@]3(C)[C@@H]([C@@]6(C)CC[C@H](C(C)(C)O)O6)[C@@H](O)C[C@@]3(C)[C@@H]5C[C@H](O[C@@H]3OC[C@@H](O)[C@H](O)[C@H]3O)[C@H]4C2(C)C)OC[C@H]1O [ASKENDOSIDE B] |

| SMILES | IC50 [µM] |
| --- | --- |
| CC(C)(O)[C@@H]1CC[C@](C)([C@H]2[C@@H](O)C[C@@]3(C)[C@@H]4C[C@H](O[C@H]5O[C@@H](CO)[C@H](O)[C@H](O)[C@@H]5O)[C@H]5C(C)(C)[C@@H](O[C@@H]6OC[C@@H](O)[C@H](O)[C@H]6O)CC[C@@]56C[C@@]46CC[C@]23C)O1 [CYCLOSIEVERSIOSIDE] | 92.3 |
| CC(C)(O)CCC(=O)[C@@](C)(O)[C@H]1[C@H](O)C[C@@]2(C)[C@@H]3CC=C4[C@@H](C=C(O[C@@H]5O[C@H](CO)[C@@H](O)[C@H](O)[C@H]5O)C(=O)C4(C)C)[C@]3(C)C(=O)C[C@]12C [BRYOAMARIDE] | 85 |
